Experiments:
[1] = target: T1, Zea mays asparagine synthetase Zm AsnS3 (SEQ ID NO: 6, encoded by SEQ ID NO: 5) (Zea mays, UniProt B5U8J8); assay: Kinetics of recombinant his-tagged, refolded maize asparagine synthetase AsnS3 (substrate titration, asparagine by HPLC); format: biochemical; conditions: 100 mM Hepes, pH 8.0, 10 mM MgCl2, read-out: Km(NH4^+)
T1 construct: 588 aa
T1 sequence (B5U8J8 1-588): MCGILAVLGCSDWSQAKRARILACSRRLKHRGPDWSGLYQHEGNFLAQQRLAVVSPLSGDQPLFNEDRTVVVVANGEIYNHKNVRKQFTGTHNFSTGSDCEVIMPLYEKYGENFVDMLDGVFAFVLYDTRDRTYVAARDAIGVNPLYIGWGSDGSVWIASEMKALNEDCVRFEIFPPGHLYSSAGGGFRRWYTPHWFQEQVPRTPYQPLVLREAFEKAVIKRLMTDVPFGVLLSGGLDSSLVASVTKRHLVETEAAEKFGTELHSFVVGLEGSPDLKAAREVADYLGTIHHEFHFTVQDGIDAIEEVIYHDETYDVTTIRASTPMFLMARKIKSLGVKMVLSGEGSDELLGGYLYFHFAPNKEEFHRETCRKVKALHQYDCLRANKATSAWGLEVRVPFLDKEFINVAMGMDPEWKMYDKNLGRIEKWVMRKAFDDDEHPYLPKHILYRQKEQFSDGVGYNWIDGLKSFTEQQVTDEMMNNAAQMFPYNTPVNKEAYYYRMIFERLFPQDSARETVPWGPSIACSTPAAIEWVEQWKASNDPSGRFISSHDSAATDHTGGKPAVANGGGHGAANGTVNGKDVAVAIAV
Experimental: (§1) The effect of expression of asparagine synthetase genes on asparagine synthetase activity was measured in transgenic events of pMON79706 and pMON92870. Frozen, ground leaf tissue was aliquoted (200-400 mg) into wells from a precooled 96 deep-well plate. Protein was extracted in Buffer A (100 mM Hepes-OH, pH 8.0, 0.1 mM EDTA, 10 mM MgCl2, 2 mM aspartate, 0.5 mM DTT, 67 mM mercaptoethanol, 20% (v/v) glycerol, 0.1 mM ATP, 1% (v/v) P9599 (Sigma Company), 25 mM KCl). A small amount of sand was added to each well. Buffer A was then added to the leaf tissue in the wells at a ratio of 4:1 (buffer:tissue). The plates were then agitated in a paint shaker for 2 min. to mix the sample and then centrifuged at 5000×g for 10 minutes. The supernatant (100-200 μL) was desalted in a 96-well macro spin plate (SNS S025L, The Nest Group Inc., Southboro, Mass.) equilibrated in buffer A. The supernatant was then either assayed immediately or frozen in liquid nitrogen and maintained at −80° C. until used. […] The mixture was then filtered to remove precipitate and asparagine was measured by HPLC. […]

[2] = target: T2, Zea mays asparagine synthetase Zm AsnS2 (SEQ ID NO: 4, encoded by SEQ ID NO: 3) (Zea mays, UniProt B5U8J7); assay: Kinetics of recombinant his-tagged, refolded maize asparagine synthetase AsnS2 (substrate titration, asparagine by HPLC); format: biochemical; conditions: Zm AsnS2; 100 mM Hepes, pH 8.0, 10 mM MgCl2; read-out: Km(NH4^+)
T2 construct: 606 aa
T2 sequence (B5U8J7 1-606): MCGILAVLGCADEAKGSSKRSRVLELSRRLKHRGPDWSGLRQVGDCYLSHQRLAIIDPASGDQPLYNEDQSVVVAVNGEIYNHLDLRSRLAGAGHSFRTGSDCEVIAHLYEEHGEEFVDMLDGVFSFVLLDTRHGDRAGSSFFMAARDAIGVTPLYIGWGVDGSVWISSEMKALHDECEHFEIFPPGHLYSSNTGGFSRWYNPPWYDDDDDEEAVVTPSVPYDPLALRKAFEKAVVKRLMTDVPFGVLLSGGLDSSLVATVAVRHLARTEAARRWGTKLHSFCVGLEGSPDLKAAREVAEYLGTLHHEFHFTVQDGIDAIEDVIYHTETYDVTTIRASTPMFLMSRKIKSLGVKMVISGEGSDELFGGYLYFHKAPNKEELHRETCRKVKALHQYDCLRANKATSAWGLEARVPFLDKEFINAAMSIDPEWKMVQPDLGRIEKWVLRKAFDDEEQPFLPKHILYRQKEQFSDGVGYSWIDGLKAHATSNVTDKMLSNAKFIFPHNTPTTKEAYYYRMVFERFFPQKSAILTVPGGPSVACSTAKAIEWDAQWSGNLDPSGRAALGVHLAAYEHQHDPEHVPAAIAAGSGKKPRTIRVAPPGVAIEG
Experimental: as §1

N [NH4^+]
Km [1]: 8.4 mM | Km [2]: 0.75 mM
